Here are results for nine compounds from ChEMBL document CHEMBL5727622, “Heterocyclic compounds used as FGFR inhibitors” (2020).

Test [1] concerns the target Fibroblast growth factor receptor 1 (Homo sapiens, UniProt P11362). Nature of the test: Inhibition Assay: FGFR1: The in vitro activity of FGFR1 was determined by assaying the phosphorylation level of the substrate in the kinase reaction, by means of an HTRF kinase assay kit. The reaction buffer comprised the following components: 5-fold diluted Enzymatic buffer/kinase 5× (main ingredient: 50 mM HEPES, pH 7.0), 5 mM MgCl2, 1 mM DTT; the human recombinant FGFR1 catalytic structural domain protein (amino acids 308-731) was purified by the company itself, diluted with the reaction buffer to a 0.6 ng/μL kinase solution; the substrate reaction solution comprised a biotin labeled tyrosine kinase substrate diluted with the reaction buffer to 400 nM , and 40 μM ATP, and the assay solution comprised an Eu3+ labeled cage-shaped antibody diluted with the assay buffer to 0.125 ng/μL, and 25 nM streptavidin labeled XL665. On the technique in general: TR-FRET usually uses a lanthanide donor and a delayed reading to cut background.

Test [2] addresses Fibroblast growth factor receptor 4 (Homo sapiens, UniProt P22455). The test can be described thus: Inhibition Assay: FGFR4:The in vitro activity of FGFR4 was determined by assaying the phosphorylation level of the substrate in the kinase reaction, by means of an HTRF kinase assay kit. The reaction buffer comprised the following components: 5-fold diluted Enzymatic buffer/kinase 5×(main ingredient: 50 mM HEPES, pH 7.0), 5 mM MgCl2, 1 mM DTT; the human recombinant FGFR4 catalytic structural domain protein (amino acids 460-802), diluted with the reaction buffer to a 0.5 ng/μL kinase solution; the substrate reaction solution comprised a biotin labeled tyrosine kinase substrate diluted with the reaction buffer to 500 nM , and 90 μM ATP, and the assay solution comprised an Eu3+ labeled cage-shaped antibody diluted with the assay buffer to 0.125 ng/μL, and 31.25 nM streptavidin labeled XL665).

Test [3] deals with Fibroblast growth factor receptor 3 (Homo sapiens, UniProt P22607). The test can be described thus: Inhibition Assay: FGFR3: The in vitro activity of FGFR3 was determined by assaying the phosphorylation level of the substrate in the kinase reaction, by means of an HTRF kinase assay kit. The reaction buffer comprised the following components: 5-fold diluted Enzymatic buffer/kinase 5×(main ingredient: 50 mM HEPES, pH 7.0), 5 mM MgCl2, 1 mM DTT; the human recombinant FGFR3 catalytic structural domain protein (amino acids 399-806), diluted with the reaction buffer to a 0.3 ng/μL kinase solution; the substrate reaction solution comprised a biotin labeled tyrosine kinase substrate diluted with the reaction buffer to 1000 nM, and 90 μM ATP, and the assay solution comprised an Eu3+ labeled cage-shaped antibody diluted with the assay buffer to 0.125 ng/μL, and 62.5 nM streptavidin labeled XL665.

For test [4], the target named is Fibroblast growth factor receptor 2 (Homo sapiens, UniProt P21802). The test can be described thus: Inhibition Assay: FGFR2: The in vitro activity of FGFR2 was determined by assaying the phosphorylation level of the substrate in the kinase reaction, by means of an HTRF kinase assay kit. The reaction buffer comprised the following components: 5-fold diluted Enzymatic buffer/kinase 5× (main ingredient: 50 mM HEPES, pH 7.0), 5 mM MgCl2, 1 mM DTT; the human recombinant FGFR2 catalytic structural domain protein (amino acids 400-821) was commercially available from Beijing Sino Biological Inc., diluted with the reaction buffer to a 0.045 ng/μL kinase solution; the substrate reaction solution comprised a biotin labeled tyrosine kinase substrate diluted with the reaction buffer to 800 nM, and 50 μM ATP, and the assay solution comprised an Eu3+ labeled cage-shaped antibody (Cisbio, Catalog number 61T66KLB) diluted with the assay buffer (Cisbio, Catalog number 62SDBRDF) to 0.125 ng/μL, and 50 nM streptavidin labeled XL665.
Chain of Fibroblast growth factor receptor 2 (P21802 whole entry, the tested form may be a part): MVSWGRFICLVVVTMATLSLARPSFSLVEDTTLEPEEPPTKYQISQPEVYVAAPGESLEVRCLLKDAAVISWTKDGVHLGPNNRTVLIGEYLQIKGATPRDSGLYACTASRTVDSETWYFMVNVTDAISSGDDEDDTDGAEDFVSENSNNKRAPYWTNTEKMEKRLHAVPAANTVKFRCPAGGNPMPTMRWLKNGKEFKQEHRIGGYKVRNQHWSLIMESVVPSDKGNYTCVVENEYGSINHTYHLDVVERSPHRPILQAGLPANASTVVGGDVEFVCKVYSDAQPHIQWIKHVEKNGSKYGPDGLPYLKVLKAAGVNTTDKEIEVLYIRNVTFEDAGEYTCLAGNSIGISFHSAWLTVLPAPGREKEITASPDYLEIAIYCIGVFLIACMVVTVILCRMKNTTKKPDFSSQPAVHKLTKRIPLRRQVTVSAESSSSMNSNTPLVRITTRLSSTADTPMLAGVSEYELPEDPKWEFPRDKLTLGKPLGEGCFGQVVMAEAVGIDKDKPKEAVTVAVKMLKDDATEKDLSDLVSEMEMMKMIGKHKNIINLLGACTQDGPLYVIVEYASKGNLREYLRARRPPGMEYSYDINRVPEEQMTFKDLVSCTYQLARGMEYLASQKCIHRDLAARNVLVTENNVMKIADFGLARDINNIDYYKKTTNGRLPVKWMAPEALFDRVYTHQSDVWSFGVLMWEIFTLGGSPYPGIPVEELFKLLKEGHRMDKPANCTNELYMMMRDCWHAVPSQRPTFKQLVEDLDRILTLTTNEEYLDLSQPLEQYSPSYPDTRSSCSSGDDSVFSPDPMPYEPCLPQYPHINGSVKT

Chain of Fibroblast growth factor receptor 3 (P22607 whole entry, the tested form may be a part): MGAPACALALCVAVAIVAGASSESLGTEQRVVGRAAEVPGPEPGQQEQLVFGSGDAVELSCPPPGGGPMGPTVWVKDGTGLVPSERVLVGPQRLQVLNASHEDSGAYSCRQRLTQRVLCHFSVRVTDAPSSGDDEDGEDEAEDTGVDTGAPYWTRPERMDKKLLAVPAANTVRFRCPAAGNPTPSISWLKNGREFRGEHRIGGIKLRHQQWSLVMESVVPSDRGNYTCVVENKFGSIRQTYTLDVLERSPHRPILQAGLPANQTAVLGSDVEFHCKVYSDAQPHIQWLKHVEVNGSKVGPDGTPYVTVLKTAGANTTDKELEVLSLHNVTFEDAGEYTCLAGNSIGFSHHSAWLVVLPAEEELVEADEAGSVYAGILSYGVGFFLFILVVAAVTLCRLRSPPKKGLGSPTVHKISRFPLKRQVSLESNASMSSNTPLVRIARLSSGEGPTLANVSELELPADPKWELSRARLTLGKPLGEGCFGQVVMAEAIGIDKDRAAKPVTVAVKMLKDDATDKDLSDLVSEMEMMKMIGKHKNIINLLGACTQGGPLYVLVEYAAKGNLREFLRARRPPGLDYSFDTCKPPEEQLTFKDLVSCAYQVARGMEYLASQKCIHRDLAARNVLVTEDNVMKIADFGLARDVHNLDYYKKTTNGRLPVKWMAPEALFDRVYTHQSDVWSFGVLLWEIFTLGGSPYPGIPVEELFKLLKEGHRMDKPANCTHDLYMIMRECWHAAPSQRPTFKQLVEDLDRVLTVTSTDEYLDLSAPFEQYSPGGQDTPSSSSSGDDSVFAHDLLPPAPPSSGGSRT
Chain of Fibroblast growth factor receptor 1 (P11362 whole entry, the tested form may be a part): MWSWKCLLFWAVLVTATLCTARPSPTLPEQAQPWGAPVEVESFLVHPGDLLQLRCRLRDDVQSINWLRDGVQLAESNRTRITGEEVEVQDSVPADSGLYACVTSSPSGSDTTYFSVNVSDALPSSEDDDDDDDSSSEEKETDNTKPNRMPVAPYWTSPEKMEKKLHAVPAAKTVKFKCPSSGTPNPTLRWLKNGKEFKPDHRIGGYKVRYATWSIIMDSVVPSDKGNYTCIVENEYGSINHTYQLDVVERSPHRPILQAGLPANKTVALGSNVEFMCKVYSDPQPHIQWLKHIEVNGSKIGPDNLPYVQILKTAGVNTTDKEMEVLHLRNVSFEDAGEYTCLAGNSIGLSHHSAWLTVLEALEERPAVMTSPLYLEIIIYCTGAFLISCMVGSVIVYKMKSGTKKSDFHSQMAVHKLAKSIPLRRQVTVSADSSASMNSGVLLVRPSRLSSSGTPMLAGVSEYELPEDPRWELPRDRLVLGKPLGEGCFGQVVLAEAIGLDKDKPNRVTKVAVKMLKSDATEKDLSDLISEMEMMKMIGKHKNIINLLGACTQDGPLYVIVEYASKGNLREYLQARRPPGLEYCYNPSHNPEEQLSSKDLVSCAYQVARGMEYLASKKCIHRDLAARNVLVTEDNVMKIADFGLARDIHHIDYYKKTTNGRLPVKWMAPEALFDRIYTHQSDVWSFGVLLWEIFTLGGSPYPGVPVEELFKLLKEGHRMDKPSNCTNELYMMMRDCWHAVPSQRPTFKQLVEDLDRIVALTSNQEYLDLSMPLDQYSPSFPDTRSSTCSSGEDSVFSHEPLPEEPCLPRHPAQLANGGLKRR
Chain of Fibroblast growth factor receptor 4 (P22455 whole entry, the tested form may be a part): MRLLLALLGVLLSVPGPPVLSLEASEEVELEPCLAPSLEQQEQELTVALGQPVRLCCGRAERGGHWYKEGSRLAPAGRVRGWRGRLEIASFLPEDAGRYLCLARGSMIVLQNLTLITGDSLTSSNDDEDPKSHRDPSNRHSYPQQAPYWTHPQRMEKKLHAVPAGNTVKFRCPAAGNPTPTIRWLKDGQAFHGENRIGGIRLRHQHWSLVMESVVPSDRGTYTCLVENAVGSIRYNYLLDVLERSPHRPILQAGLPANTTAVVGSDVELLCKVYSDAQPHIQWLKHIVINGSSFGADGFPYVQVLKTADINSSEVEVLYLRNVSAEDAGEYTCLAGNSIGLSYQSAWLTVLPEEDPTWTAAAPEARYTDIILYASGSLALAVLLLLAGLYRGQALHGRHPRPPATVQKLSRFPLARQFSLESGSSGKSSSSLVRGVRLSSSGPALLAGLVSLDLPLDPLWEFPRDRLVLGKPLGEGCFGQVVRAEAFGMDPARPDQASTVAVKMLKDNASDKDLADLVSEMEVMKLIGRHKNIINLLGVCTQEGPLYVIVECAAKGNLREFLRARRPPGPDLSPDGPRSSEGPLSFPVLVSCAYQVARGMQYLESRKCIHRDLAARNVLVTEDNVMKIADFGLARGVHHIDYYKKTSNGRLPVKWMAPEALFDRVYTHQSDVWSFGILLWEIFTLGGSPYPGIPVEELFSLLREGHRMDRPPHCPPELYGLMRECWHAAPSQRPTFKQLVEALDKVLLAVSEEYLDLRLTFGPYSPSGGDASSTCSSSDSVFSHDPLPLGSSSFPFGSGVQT

One may read the IC50 as the concentration at which inhibition is half-maximal. `COC[C@H](C)Oc1cc(NC(=O)N(C)c2ccc(CN3CCN(C)CC3=O)c(C=O)n2)ncc1C#N`: the half-maximal inhibitory concentration (IC50) in test [1] was above 1000 nM; in test [2] it was below 10 nM; in test [3], above 1000 nM; in test [4] it was above 1000 nM.

Turning to `CN1CCN(Cc2ccc(N(C)C(=O)Nc3cc(Cl)c(C#N)cn3)nc2C=O)C(=O)C1`, the 50% inhibitory concentration (IC50) in test [1], in test [3] and in test [4] was above 1000 nM throughout.

Regarding `COCCOc1cc(NC(=O)N(C)c2ccc(CN3CCOCC3=O)c(C=O)n2)ncc1C#N`, the IC50 in test [1] was above 1000 nM; in test [2], below 10 nM; in test [3], above 1000 nM; in test [4], above 1000 nM.

As to `COCCNc1cc(NC(=O)N(C)c2ccc(CN3CCOCC3=O)c(C=O)n2)ncc1C#N`, the IC50 in test [1] was above 1000 nM; in test [2] it was below 10 nM; in test [3], above 1000 nM; in test [4], above 1000 nM.

Regarding `C[C@@H](CO)Oc1cc(NC(=O)N(C)c2ccc(CN3CCN(C)CC3=O)c(C=O)n2)ncc1C#N`, the 50% inhibitory concentration (IC50) was above 1000 nM in test [1], below 10 nM in test [2], above 1000 nM in test [3] and above 1000 nM in test [4].

Regarding `CC(C)Oc1cc(NC(=O)N(C)c2ccc(CN3CCN(C)CC3=O)c(C=O)n2)ncc1C#N`, the IC50 is above 1000 nM in test [1], below 10 nM in test [2], above 1000 nM in test [3] and above 1000 nM in test [4].

Turning to `CC(C)Nc1cc(NC(=O)N(C)c2ccc(CN3CCOCC3=O)c(C=O)n2)ncc1C#N`, the IC50 in test [1] was above 1000 nM; in test [2], below 10 nM; in test [3], above 1000 nM; in test [4] it was above 1000 nM.

For `CC(C)Nc1cc(NC(=O)N(C)c2ccc(CN3CCN(C)CC3=O)c(C=O)n2)ncc1C#N`, the IC50 in test [1] is above 1000 nM; in test [2] it was below 10 nM; in test [3] it was above 1000 nM; in test [4], above 1000 nM.

For the compound `COC[C@@H](C)Oc1cc(NC(=O)N(C)c2ccc(CN3CCN(C)CC3=O)c(C=O)n2)ncc1C#N`, the concentration for half-maximal inhibition (IC50) in test [1] is above 1000 nM; in test [2] it was below 10 nM; in test [3] it was above 1000 nM; in test [4], above 1000 nM.
